Molecular target: T1, BACE1 enzyme (Homo sapiens, UniProt P56817)
T1 construct: The HEK293-9B.A1 cell line, which overexpresses the BACE1 enzyme, was derived from HEK293 cells; endogenous in cells; washed 48,000xg membrane pellet/homogenate
Test: Radioligand displacement assay with a radiolabeled BACE inhibitor on HEK293-9B.A1 cell homogenate
Assay type: binding
Conditions: displacement of 1 nM tritiated radioligand, HEK293-9B.A1 homogenate, pH 5.0, 1.5 hr at 25° C.; read-out: Activity Rating (activity based on IC50 values)
Description: There are a number of methods by which inhibitors of the BACE enzyme can be identified experimentally. The enzyme can be obtained from membrane samples from natural tissues or cultured cells or can be expressed recombinantly in a host cell by well known methods of molecular biology. The whole enzyme or a portion thereof can be expressed, for example, in bacterial, insect or mammalian cells to obtain a catalytically active enzyme species. The enzymatic activity and/or ligand binding capability of the enzyme can be assessed within these membrane samples, or the enzyme can be purified to varying extents. As an illustrative example, the nucleic acid sequence encoding the pro and catalytic domains of human BACE can be appended on the 5′ end with an untranslated and signal sequence from the gene for acetylcholinesterase, and on the 3′ end with a sequence encoding a poly-histidine tag. This cDNA can then be expressed in Drosophila melanogaster S2 cells in which the signal and pro sequences of the transcribed/translated protein are removed by cellular proteases and the catalytic domain, appended by a C-terminal poly-histidine tag, is secreted out into the cellular medium. The enzyme can then be purified from the culture medium by nickel affinity chromatography by methods well known to those trained in the art [Mallender, W. et al., (2001) “Characterization of recombinant, soluble beta-secretase from an insect cell expression system.” Mol. Pharmacol. 59: 619-626]. Similar strategies for expressing and purifying various forms of BACE in bacterial, mammalian and other cell types would be known to one skilled in the art. A preferred method for determining the potency of a test compound in binding to the BACE enzyme is by monitoring the displacement of a suitable radioligand.
Radioligand displacement assays with a radiolabeled BACE inhibitor (WO 2004 013098, compound 3, where the methoxy group is substituted for C(^3H)3) were carried out using standard methods (Keen, M. (1999) in Receptor Binding Techniques (Walker, J. M. ed) p. 106 Humana Press, Totowa, N.J.). The HEK293-9B.A1 cell line, which overexpresses the BACE1 enzyme, was derived from HEK293 cells (Simmons, N. L. (1990) A cultured human renal epithelioid cell line responsive to vasoactive intestinal peptide. Exp. Physiol. 75:309-19.) by RAGE™ (Harrington, J. J. et al. (2001) Creation of genome-wide protein expression libraries using random activation of gene expression. Nat. Biotechnol. 19:440-5.; U.S. Pat. Nos. 6,410,266 and 6,361,972). T225 flask cultures of HEK293-9B.A1 were grown to 80% confluency in DMEM supplemented with 2 mM L-glutamine, 10 μg/ml penicillin, 10 μg/ml streptomycin, 3 μg/ml puromycin, 100 nM methotrexate, and 10% fetal bovine serum (Invitrogen, Carlsbad, Calif.), harvested, and resuspended at 2×10^8 cells per 10 ml of lysis buffer consisting of 50 mM HEPES pH 7.0 containing a protease inhibitor cocktail of AEBSF 104 μM, aprotinin 80 nM, leupeptin 2 μM, bestatin 4 μM, pepstatin A 1.5 μM, and E-64 1.4 μM (0.1% of protease inhibitor cocktail P8340, Sigma-Aldrich, St. Louis, Mo.) at 4° C. The resuspended cells were homogenized using a Polytron (Brinkman, Westbury, N.Y.) at setting 6 for 10 sec., then centrifuged at 48,000×g for 10 min. The resulting pellet was washed by repeating the resuspension, homogenization and centrifugation steps. The final pellet was resuspended in buffer at 4° C. to yield a total protein concentration of 5 mg/ml, then aliquots were frozen in liquid nitrogen for further storage at −70° C. Immediately before carrying out a binding assay, an aliquot of cell homogenate was thawed and diluted to a concentration of 100 μg/ml in assay buffer consisting of 50 mM HEPES pH 5.0 and 0.1% CHAPSO. […]

T1 sequence (P56817 46-501): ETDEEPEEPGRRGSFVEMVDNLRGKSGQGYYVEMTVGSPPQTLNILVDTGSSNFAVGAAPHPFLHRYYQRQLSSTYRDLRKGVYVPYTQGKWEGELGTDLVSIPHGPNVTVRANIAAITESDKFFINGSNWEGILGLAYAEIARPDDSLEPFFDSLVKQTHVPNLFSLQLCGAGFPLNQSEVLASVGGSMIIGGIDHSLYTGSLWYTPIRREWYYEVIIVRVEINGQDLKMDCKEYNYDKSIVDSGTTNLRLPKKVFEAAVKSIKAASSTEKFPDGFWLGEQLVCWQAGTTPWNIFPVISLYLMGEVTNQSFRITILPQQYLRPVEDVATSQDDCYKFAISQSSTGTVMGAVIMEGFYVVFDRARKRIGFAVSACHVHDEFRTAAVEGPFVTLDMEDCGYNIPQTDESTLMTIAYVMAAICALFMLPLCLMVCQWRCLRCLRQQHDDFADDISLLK

| Compound | IC50 [nM] |
| --- | --- |
| N/C(=N\C(=O)[C@@H]1CCCN1c1ccccc1)NCc1cc(Cl)c(N)c(Cl)c1 [Example 1, (S)—N-((4-Amino-3,5-dichlorobenzylamino)(amino)methylene)-1-phenylpyrrolidine-2-carboxamide] | 100 to 1000 |
| CC(=O)Nc1c(Cl)cc(CN/C(N)=N/C(=O)[C@@H]2CCCN2c2ccccc2)cc1Cl [Example 2, (S)—N-((4-Acetamido-3,5-dichlorobenzylamino)(amino)methylene)-1-phenylpyrrolidine-2-carboxamide] | 100 to 1000 |
| CN(C)CC(=O)Nc1c(Cl)cc(CN/C(N)=N/C(=O)[C@@H]2CCCN2c2ccccc2)cc1Cl [Example 3, (S)—N-((3,5-Dichloro-4-(2-(dimethylamino)-acetamido)-benzylamino)(amino)methylene)-1-phenylpyrrolidine-2-carboxamide] | 100 to 1000 |
| COc1ccc(N2CCC[C@H]2C(=O)/N=C(\N)NCc2cc(Cl)c(N)c(Cl)c2)cc1 [Example 4, (S)—N-((4-Amino-3,5-dichlorobenzylamino)(amino)methylene)-1-(4-methoxyphenyl)pyrrolidine-2-carboxamide] | 100 to 1000 |
| COc1ccc(N2CCC[C@H]2C(=O)/N=C(\N)NCc2cc(Cl)c(NC(C)=O)c(Cl)c2)cc1 [Example 5, (S)—N-((4-Acetamido-3,5-dichlorobenzylamino)(amino)methylene)-1-(4-methoxyphenyl)pyrrolidine-2-carboxamide] | 100 to 1000 |
| COc1ccc(N2CCC[C@H]2C(=O)/N=C(\N)NCc2cc(Cl)c(NC(=O)CN(C)C)c(Cl)c2)cc1 [Example 6, (S)—N-((3,5-Dichloro-4-(2-(dimethylamino)acetamido)benzylamino)-(amino)methylene)-1-(4-methoxyphenyl)pyrrolidine-2-carboxamide] | 100 to 1000 |
| CN(C)CC(=O)Nc1c(Cl)cc(CN/C(N)=N/C(=O)[C@H]2CCCN2c2ccc(C(F)(F)F)cc2)cc1Cl [Example 31, (R)—N-(Amino(3,5-dichloro-4-(2-(dimethylamino)acetamido)-benzylamino)methylene)-1-(4-(trifluoromethyl)phenyl)pyrrolidine-2-carboxamide] | < 100 |
| CO[C@@H]1C[C@@H](C(=O)/N=C(\N)NCc2cc(Cl)c(NC(C)=O)c(Cl)c2)N(c2ccccc2)C1 [Example 32, (2S,4R)—N-((4-Acetamido-3,5-dichlorobenzylamino)(amino)-methylene)-4-methoxy-1-phenylpyrrolidine-2-carboxamide] | < 100 |
| CO[C@@H]1C[C@@H](C(=O)/N=C(\N)NCc2cc(Cl)c(NC(=O)CN(C)C)c(Cl)c2)N(c2ccccc2)C1 [Example 33, (2S,4R)—N-(Amino(3,5-dichloro-4-(2-(dimethylamino)acetamido)benzylamino)methylene)-4-methoxy-1-phenylpyrrolidine-2-carboxamide] | < 100 |
| CC(=O)Nc1c(Cl)cc(CN/C(N)=N/C(=O)C2C3CC3CN2c2ccccc2)cc1Cl (stereo not drawn) [Example 34, cis-N-((4-Acetamido-3,5-dichlorobenzylamino)(amino)methylene)-3-phenyl-3-azabicyclo[3.1.0]hexane-2-carboxamide] | 100 to 1000 |
